Columns and labels:
[1] = in vivo
Protocol: A study was performed in eight (8) healthy adult male and female subjects to assess the effects of a bolus dose and 72 hour infusion of 2-O, 3-O desulfated heparin. The study was a Phase I study with a three day treatment period. Doses were adjusted to maintain an aPTT level of 40-45 seconds. Subjects were between the ages of 18 and 60, were not pregnant, and were normal in body weight. They all had normal coagulation function and hemoglobin values at baseline.
Subjects received an initial bolus of 8 mg/kg of ODSH over 15 minutes, followed by 72 hours continuous infusion beginning at 0.58 mg/kg/hr. For each subject ODSH as a 50 mg/ml formulation was diluted with normal saline and administered as a bolus infused over 15 minutes containing the calculated amount of ODSH the subject was to receive, followed by infusion of ODSH diluted in saline. The infusion dose was adjusted to maintain an aPTT of 40-45 seconds. Immediately before infusion and after the start of each infusion, blood was drawn at periodic times (over a total 72 hour period) to monitor the effect of infusion on the following laboratory studies: activated partial thromboplastin time (aPTT), prothrombin time (PT), activated clotting time (ACT), and ODSH plasma level. Serum chemistries and a complete blood count were checked immediately before infusion and again periodically for up to 240 hours later. Using values for aPTT and ODSH levels, pharmacokinetic parameters were calculated by noncompartmental methods using a commercial software program (PhAST 2.3-001). The following pharmacokinetic parameters were calculated as above: Cmax; Kel; tmax; AUC O-t; AUCinf, t1/2; CL; and Vdss.

[2] = test system: rabbit ventricular myocytes; assay: [Na^+]i in paced myocytes exposed to ATX, no metabolic inhibition; type: cell-based; settings: FIG. 9
Protocol: In these studies, intracellular calcium concentration [Ca^++]i was measured by flow cytometry. Measurement of isolated mouse and rabbit ventricular myocyte [Ca^2+]i and [Na^+]i by flow cytometry has been described (Zhang et al., J. Cardiovasc. Pharmacol. 51: 443-449 (2008); Li et al., J. Mol. Cell. Cardiol. 33: 2145-2155 (2001)). [Ca^++]i was measured with the Ca^++ sensitive fluorescent probe, Fluo 3-AM (Molecular Probes, Eugene, Oreg.), using a FACScan (Becton-Dickinson, MA). The cells were exposed to 4 μmol/L Fluo-3 AM for 30 min at 37° C. The cells were then separated into aliquots. […] Metabolic ischemia was accomplished by incubating cells in a glucose-free MKRBB solution (pH 7.40) containing 2 mmol/L sodium cyanide (NaCN) to impair mitochondrial and glycolytic generation of ATP. To reproduce the situation in the beating ischemic heart, during the period of metabolic ischemia, myocytes were placed in a 5-well chamber with equal volumes of myocyte suspensions from the same heart dissociation placed in each well. The chamber was water bathed to maintain temperature at 37° C. and bubbled with 5% CO2 in air to keep myocytes in suspension. Each well was fitted with platinum sheet electrodes on both sides for field stimulation. One chamber was constructed with a glass coverslip bottom so that myocytes can be observed microscopically to assess capture threshold. Placing electrodes were connected in series to a constant current pulse generator that delivers a 0.2 ampere pulse at 0.5 Hz. […] Approximately 2×10^3 myocytes were analyzed to calculate average emission fluorescence intensity in each sample. […] Only those cells with low fluorescence intensity at 670 nm (PI-negative cells or viable cells) were included in the comparative analysis of [Ca^++]i. The sample [Ca^2+]i values were calculated by Mn^2+ quenching (Sugishita et al, 2001) and [Na^+]i values by comparison with a standard curve of varied [Na^+]i versus Na Green fluorescence. […] Results were expressed as means±SEM. […]

Substance: 2-O, 3-O desulfated heparin [ODSH]
- Platelet count, Day After Infusion [1]: 261 ± 37 thousands/μL blood
- Platelet count, Day Before Infusion [1]: 261 ± 40 thousands/μL blood
- Platelet count, Infusion Day 2 [1]: 258 ± 39 thousands/μL blood
- Platelet count, Infusion Day 3 [1]: 272 ± 42 thousands/μL blood
- ecchymosis [1]: Mild ecchymosis was reported in one subject
- transient elevations in serum ALT and AST [1]: observed in seven subjects
- effect on ATX-induced increase in [Na^+]i ([2]; ODSH 100 ug/ml with ATX 10 nM): almost completely inhibited
- effect on [Na^+]i in the absence of ATX ([2]; ODSH 100 ug/ml, HEPES + pacing alone): reduced [Na^+]i in myocytes in the absence of ATX but to a much smaller extent

Reference: patent US20090238852A1, “METHODS FOR CONTROLLING INTRACELLULAR CALCIUM LEVELS ASSOCIATED WITH AN ISCHEMIC EVENT” (University of Utah Research Foundation, priority 2008, published 2009)
